{"source": "paper PMC8951016", "about": "“Computational Design and Biological Evaluation of Analogs of Lupin Peptide P5 Endowed with Dual PCSK9/HMG-CoAR Inhibiting Activity” (Pharmaceutics, 2022)", "key": {"[1]": {"system": "human intestinal Caco-2 cells", "settings": "cited from earlier work"}, "SREBP-2": {"system": "SREBP-2", "test": "Western blot, SREBP-2 protein level in HepG2", "format": "cell-based, human", "settings": "50 µM, 24 h", "procedure": "A total of 1.5 × 10^5 HepG2 cells/well (24-well plate) were treated with 50 μM of P5 and P5 analogs for 24 h. Immunoblotting experiments were performed using optimized protocol. See Supplementary Materials for further details.\nPBS for 1.5 h at RT. LDLR primary antibody solution (1:3000 in 5% BSA in PBS, 25 µL/well) was incubated O/N at +4 °C. Subsequently, the primary antibody solution was discarded and each sample was washed 5 times with 100 µL/well of PBS (each wash was for 5 min at RT). Goat anti-rabbit Ig-HRP secondary antibody solution (Santa Cruz) (1:6000 in 5% BSA in PBS, 50 µL/well), was added and incubated 1 h at RT. […] The reaction was stopped with 2 M H2SO4 and then the absorbance at 450 nm was measured using the microplate reader Synergy H1 (Winoo-ski, VT, USA). After the read, cells were stained by adding 1 X Janus Green stain, incubat-ing for 5 min at RT. […]\nAfterward 100 µL 0.5 M HCl for well were added and incubated for 10 min. After 10 sec-onds shaking, the OD at 595 nm was measured using the microplate reader Synergy H1 […]\nFluorescent LDL Uptake. […] The degree of LDL uptake was measured using the Synergy H1 fluo-rescent plate reader (Winooski, VT, USA) (excitation and emission wavelengths 540 and 570 nm, respectively). Fluorescent LDL-uptake was finally assessed following optimized […]"}, "LDLR": {"system": "LDLR", "design": "method as in 3 sources, ref 48 = [48]; doi:10.1111/jfbc.12757; 48. Lammi C. Zanoni C. Arnoldi A. Aiello G. […] (P3), a peptide from lupin protein, absorbed by Caco-2 cells, modulates cholesterol metabolism in HepG2 cells via SREBP-1 activation J. Food B ||| ref 22 = [22]; doi:10.1016/j.jff.2017.02.009; 22. Zanoni C. Aiello G. Arnoldi A. Lammi C. Investigations on the hypocholesterolaemic activity of […] and LTFPGSAED, two peptides from lupin β-conglutin: Focus on LDLR and PCSK9 pathways J. Fu ||| ref 24 = [24]; PMID 33808034; doi:10.3390/nu13030863; 24. Lammi C. Aiello G. Bollati C. Li J. Bartolomei M. Ranaldi G. Ferruzza S. Fassi E.M.A. Grazioso G. Sambuy Y. Trans-Epithelial Transport, Metabolism, and Biological Activity Assessment of the Multi-", "settings": "through activation of SREBP-2; cited from earlier work"}}}
{"sequence": "LILPKHSDAD [Peptide P5, natural peptide derived from a peptic lupin protein hydrolysate]", "values": [{"measurement": "metabolism during Caco-2 transport", "setting": "[1]", "result": "partially metabolized in a breakdown fragment (LPKHSDAD, P5-met)"}, {"measurement": "transport by differentiated Caco-2 cells", "setting": "[1]", "result": "successfully transported"}, {"measurement": "SREBP-2 protein level (words, P5)", "setting": "SREBP-2", "result": "upregulation of the SREBP-2 transcription factor level"}, {"measurement": "LDLR protein level in HepG2 (P5, earlier work, words)", "setting": "LDLR", "result": "increases the LDLR protein level"}]}
